For data set [1], the system named is MCF-10A normal breast cell. Briefly: MTT assay, MCF-10A normal cells. It counts as cell-based, human. The settings on record: 48 h. The essentials:
(§1)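 Cell lines plated in 96-well plates and exposed to compounds; anti-proliferative activity determined by MTT read-out as inhibition of net cell growth.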
For orientation: Tetrazolium assays rely on reduction of a dye to a coloured formazan, in cell work by metabolically active cells.

The subject of data set [2] is diffuse large B-cell lymphoma SU-DHL-10 cell. Briefly: MTT anti-proliferative assay, SU-DHL-10. Type of data set: cell-based, human. The essentials:
as §1

Data set [3] relates to BEL-7402 liver cancer cell. Briefly: MTT anti-proliferative assay, BEL-7402. The conditions noted are these: for IC50: MTT, 48 h. It counts as cell-based, human. The essentials: as §1
Data set [4] has as its system Raji B lymphoblastoid cell. Briefly: MTT anti-proliferative assay, Raji. Type of data set: cell-based, human. The essentials:
as §1

Data set [5] relates to SGC-7901 early differentiation gastric cancer cell. Briefly: MTT anti-proliferative assay, SGC-7901. Type of data set: cell-based, human. The conditions noted are these: for IC50: MTT, 48 h. The procedure, abridged: as §1
For data set [6], the system named is HeLa cervical cancer cell. Briefly: MTT anti-proliferative assay, HeLa. Type of data set: cell-based, human. The settings on record: MTT, 48 h. The procedure, abridged:
as §1

For a further data set, the system named is AGS gastric cancer cell. Briefly: MTT anti-proliferative assay, AGS. It counts as cell-based, human. The conditions noted are these: for IC50: MTT, 48 h. The essentials: as §1
The subject of data set [7] is MGC-803 late stage differentiation gastric cancer cell. Briefly: MTT anti-proliferative assay, MGC-803. Type of data set: cell-based, human. The conditions noted are these: for IC50: MTT, 48 h. The procedure, abridged: as §1
A further data set relates to A549 lung cancer cell. Briefly: MTT anti-proliferative assay, A549. Type of data set: cell-based, human. The conditions noted are these: MTT, 48 h. The procedure, abridged:
as §1

Data set [8] has as its system HCT116 colectal cancer cell. Briefly: MTT anti-proliferative assay, HCT116. Type of data set: cell-based, human. The settings on record: for IC50: MTT, 48 h. The procedure, abridged: as §1
The test system of the next data set is HepG2 hepatoma cell. Briefly: MTT anti-proliferative assay, HepG2. It counts as cell-based, human. The conditions noted are these: MTT, 48 h, read-out: IC50 HepG-2. The procedure, abridged:
as §1

The test system of a further data set is MCF-7 breast cancer cell. Briefly: MTT anti-proliferative assay, MCF-7. It counts as cell-based, human. The settings on record: MTT, 48 h. The procedure, abridged: as §1
The subject of the next data set is L-02 normal liver cell. Briefly: MTT assay, L-02 normal cells. It counts as cell-based, human. The conditions noted are these: 48 h. The procedure, abridged:
as §1

Setting [9] is: Homo sapiens, SU-DHL10, MTT, 48 h, read-out: IC50 SU-DHL-10.
The mark [10] stands for this setting: Homo sapiens, Raji, MTT, 48 h, read-out: IC50 Raji.

Where two headings read alike, the source gives them in different places. Where only a bound is given, the exact number is not on record here.

Usually IC50 stands for the midpoint of a concentration-inhibition curve. As usually defined, the melting point is the temperature, or range, at which the solid turns liquid.

With `N#C/C(=C\c1cn(-c2ccccc2)nn1)c1ccc(OC(F)(F)F)cc1` [Compound 7a], the IC50 in [1] (Homo sapiens, MCF-10A) was more than 100 µM; in data set [2] (setting [9]), more than 100 µM; in [3] (Homo sapiens, Bel-7402), more than 100 µM; in [4] (setting [10]) it was more than 100 µM; in data set [5] (Homo sapiens, SGC-7901), more than 100 µM; in data set [6] (Homo sapiens, HeLa) it was more than 100 µM. The 50% inhibitory concentration (IC50) in the data set on AGS gastric cancer cell (Homo sapiens) was more than 100 µM; in data set [7] (Homo sapiens, MGC-803) it was more than 100 µM; with A549 lung cancer cell (Homo sapiens, A549), more than 100 µM; in data set [8] (Homo sapiens, HCT-116), more than 100 µM; in the data set on HepG2 hepatoma cell (Homo sapiens, HepG2), more than 100 µM; with MCF-7 breast cancer cell (Homo sapiens, MCF7), more than 100 µM. In the data set on L-02 normal liver cell (Homo sapiens), this molecule yielded a half-inhibitory concentration (IC50) of more than 100 µM.
In the case of `COc1cccc(-n2cc(/C=C(\C#N)c3ccc(OC(F)(F)F)cc3)nn2)c1` [Compound 7b], the IC50 was more than 100 µM in [1] (Homo sapiens, MCF-10A); more than 100 µM in [2] (setting [9]); more than 100 µM in [3] (Homo sapiens, Bel-7402); more than 100 µM in data set [4] (setting [10]); more than 100 µM in data set [5] (Homo sapiens, SGC-7901); more than 100 µM in data set [6] (Homo sapiens, HeLa). For the same molecule, the IC50 in the data set with AGS gastric cancer cell (Homo sapiens) was more than 100 µM; in [7] (Homo sapiens, MGC-803), more than 100 µM; with A549 lung cancer cell (Homo sapiens, A549), more than 100 µM; in data set [8] (Homo sapiens, HCT-116) it was more than 100 µM; with HepG2 hepatoma cell (Homo sapiens, HepG2), more than 100 µM; in the data set on MCF-7 breast cancer cell (Homo sapiens, MCF7), more than 100 µM. Besides, in the data set with L-02 normal liver cell (Homo sapiens), the 50% inhibitory concentration (IC50) was more than 100 µM.
Molecule `COc1cc(-n2cc(/C=C(\C#N)c3ccc(OC(F)(F)F)cc3)nn2)cc(OC)c1OC` [Compound 7c] gave a melting point of 170 to 172 °C. Besides, in data set [1] (Homo sapiens, MCF-10A), the IC50 was more than 100 µM. Further, in data set [2] (setting [9]), the 50% inhibitory concentration (IC50) was more than 100 µM. Moreover, the 50% inhibitory concentration (IC50) in [3] (Homo sapiens, Bel-7402) is more than 100 µM. Further, in data set [4] (setting [10]), the IC50 was more than 100 µM. In addition, the IC50 in data set [5] (Homo sapiens, SGC-7901) is more than 100 µM. Moreover, the half-inhibitory concentration (IC50) in data set [6] (Homo sapiens, HeLa) was more than 100 µM. Besides, in the data set with AGS gastric cancer cell (Homo sapiens), the 50% inhibitory concentration (IC50) was more than 100 µM. Moreover, in data set [7] (Homo sapiens, MGC-803), the IC50 was more than 100 µM. The molecule also yielded a half-inhibitory concentration (IC50) with A549 lung cancer cell (Homo sapiens, A549) of more than 100 µM. The same molecule came in with an IC50 in data set [8] (Homo sapiens, HCT-116) of more than 100 µM. Moreover, in the data set on HepG2 hepatoma cell (Homo sapiens, HepG2), the IC50 was more than 100 µM. The molecule further returned a 50% inhibitory concentration (IC50) with MCF-7 breast cancer cell (Homo sapiens, MCF7) of more than 100 µM. The molecule further gave an IC50 in the data set with L-02 normal liver cell (Homo sapiens) of more than 100 µM.
In the case of `COc1ccc(C(=O)/C=C/c2ccc(/C=C(\C#N)c3ccc(OC(F)(F)F)cc3)cc2)cc1` [Compound 8a], the melting point is 148 to 150 °C. Moreover, in data set [1] (Homo sapiens, MCF-10A), the IC50 is 11.3 ± 2.3 µM. The half-inhibitory concentration (IC50) in [2] (setting [9]) worked out at 1.3 ± 0.1 µM. For the same molecule, the IC50 in [2] (Homo sapiens, SU-DHL10, read-out: IC50 SU-DHL-10 cells) is approximately 1 µM. The same molecule gave a half-maximal inhibitory concentration (IC50) in data set [3] (Homo sapiens, Bel-7402) of 13.2 ± 2.7 µM. The half-inhibitory concentration (IC50) in data set [4] (setting [10]) was determined as 1.2 ± 0.5 µM. Moreover, the 50% inhibitory concentration (IC50) in data set [4] (Homo sapiens, Raji, read-out: IC50 Raji cells) is approximately 1 µM. The molecule further showed an IC50 in data set [5] (Homo sapiens, SGC-7901) of more than 100 µM. In data set [6] (Homo sapiens, HeLa), this molecule gave an IC50 of more than 100 µM. This molecule registered an IC50 in the data set on AGS gastric cancer cell (Homo sapiens) of more than 100 µM. This molecule also returned a half-inhibitory concentration (IC50) in data set [7] (Homo sapiens, MGC-803) of more than 100 µM. In the data set on A549 lung cancer cell (Homo sapiens, A549), this molecule displayed a 50% inhibitory concentration (IC50) of more than 100 µM. This molecule had an IC50 in [8] (Homo sapiens, HCT-116) of 56.3 ± 8.4 µM. Moreover, the 50% inhibitory concentration (IC50) in the data set on HepG2 hepatoma cell (Homo sapiens, HepG2) is more than 100 µM. In addition, in the data set on MCF-7 breast cancer cell (Homo sapiens, MCF7), it took 17.6 ± 6.5 µM to reach half-maximal inhibition (IC50). Further, the IC50 with L-02 normal liver cell (Homo sapiens) is more than 100 µM.
For `N#C/C(=C\c1ccc(/C=C/C(=O)c2ccccc2)cc1)c1ccc(OC(F)(F)F)cc1` [Compound 8b], the melting point was in the range of 155 to 157 °C. The same molecule returned an IC50 in [1] (Homo sapiens, MCF-10A) of more than 100 µM. For the same molecule, the IC50 in data set [2] (setting [9]) is more than 100 µM. Moreover, the half-maximal inhibitory concentration (IC50) in data set [3] (Homo sapiens, Bel-7402) is more than 100 µM. The IC50 in data set [4] (setting [10]) was more than 100 µM. This molecule showed an IC50 in [5] (Homo sapiens, SGC-7901) of more than 100 µM. This molecule displayed a half-inhibitory concentration (IC50) in data set [6] (Homo sapiens, HeLa) of more than 100 µM. In the data set with AGS gastric cancer cell (Homo sapiens), this molecule registered a half-inhibitory concentration (IC50) of more than 100 µM. Besides, the 50% inhibitory concentration (IC50) in data set [7] (Homo sapiens, MGC-803) was more than 100 µM. Moreover, the concentration for half-maximal inhibition (IC50) with A549 lung cancer cell (Homo sapiens, A549) is more than 100 µM. The same molecule gave an IC50 in data set [8] (Homo sapiens, HCT-116) of more than 100 µM. Moreover, the concentration for half-maximal inhibition (IC50) in the data set on HepG2 hepatoma cell (Homo sapiens, HepG2) was more than 100 µM. The IC50 in the data set with MCF-7 breast cancer cell (Homo sapiens, MCF7) is more than 100 µM. In the data set on L-02 normal liver cell (Homo sapiens), the concentration for half-maximal inhibition (IC50) is more than 100 µM.
With `N#C/C(=C\c1ccc(/C=C/C(=O)c2ccc(F)cc2)cc1)c1ccc(OC(F)(F)F)cc1` [Compound 8c], the concentration for half-maximal inhibition (IC50) was 15.8 ± 2.5 µM in data set [1]; 1 ± 0.2 µM in [2] (MTT, 48 h, read-out: IC50 SU-DHL-10); approximately 1 µM in data set [2] (read-out: IC50 SU-DHL-10 cells); 77.4 ± 3 µM in data set [3]; 1 ± 0.2 µM in data set [4] (MTT, 48 h, read-out: IC50 Raji); approximately 1 µM in [4] (read-out: IC50 Raji cells). Besides, the IC50 in data set [5] is 22.2 ± 8.6 µM; in data set [6], more than 100 µM; with AGS gastric cancer cell it was 25.3 ± 7.5 µM; in data set [7] it was 87.5 ± 0.6 µM; in the data set with A549 lung cancer cell, more than 100 µM; in data set [8] (read-out: IC50 HCT-116), 22.9 ± 6.2 µM. Besides, the half-inhibitory concentration (IC50) was more than 100 µM in the data set with HepG2 hepatoma cell, 67.7 ± 5.4 µM in the data set with MCF-7 breast cancer cell and more than 100 µM in the data set on L-02 normal liver cell. The “SI (selectivity index), IC50 (L-02)/IC50 (SU-DHL-10)” value in data set [2] is listed as more than 96.1. The “SI (selectivity index), IC50 (L-02)/IC50 (BEL-7402)” value in data set [3] was more than 1.2. Also, the “SI (selectivity index), IC50 (L-02)/IC50 (Raji)” value in [4] is more than 99.0. In addition, the “SI (selectivity index), IC50 (L-02)/IC50 (SGC-7901)” value in data set [5] is reported as more than 4.5. For the same molecule, the “SI (selectivity index), IC50 (L-02)/IC50 (AGS)” value in the data set with AGS gastric cancer cell is more than 3.9. Besides, in [7], the “SI (selectivity index), IC50 (L-02)/IC50 (MGC-803)” value is listed as more than 1.1. The “SI (selectivity index), IC50 (L-02)/IC50 (HCT-116)” value in data set [8] is more than 4.3.

Values taken from PMC11071649, “Synthesis and Selective Anticancer Activity Evaluation of 2-phenylacrylonitrile Derivatives as Tubulin Inhibitors” (Current Medicinal Chemistry, 2024).
